Laboratory results: paper PMC4281712, “ATPase-dependent auto-phosphorylation of the open condensin hinge diminishes DNA binding” (Open Biology, 2014)

What was measured:
[1] = target: T1, Cut3–Cut14 (condensin SMC heterodimer; Cut3/SMC4–Cut14/SMC2) (Schizosaccharomyces pombe, UniProt P41003+P41004); test: inhibition of γ-32P labelling, autoradiography; format: biochemical; settings: 1 mM nucleotide pre-incubated 5 min; ATP 8 nM hot, 50 nM cold; 30 min, 30 °C
T1 construct: full-length SMC heterodimer co-overproduced in S. pombe; C-terminal tags kept (Cut14-3HA-His6; Cut3 mutants 8Myc)
T1 sequence (P41004 1-1324): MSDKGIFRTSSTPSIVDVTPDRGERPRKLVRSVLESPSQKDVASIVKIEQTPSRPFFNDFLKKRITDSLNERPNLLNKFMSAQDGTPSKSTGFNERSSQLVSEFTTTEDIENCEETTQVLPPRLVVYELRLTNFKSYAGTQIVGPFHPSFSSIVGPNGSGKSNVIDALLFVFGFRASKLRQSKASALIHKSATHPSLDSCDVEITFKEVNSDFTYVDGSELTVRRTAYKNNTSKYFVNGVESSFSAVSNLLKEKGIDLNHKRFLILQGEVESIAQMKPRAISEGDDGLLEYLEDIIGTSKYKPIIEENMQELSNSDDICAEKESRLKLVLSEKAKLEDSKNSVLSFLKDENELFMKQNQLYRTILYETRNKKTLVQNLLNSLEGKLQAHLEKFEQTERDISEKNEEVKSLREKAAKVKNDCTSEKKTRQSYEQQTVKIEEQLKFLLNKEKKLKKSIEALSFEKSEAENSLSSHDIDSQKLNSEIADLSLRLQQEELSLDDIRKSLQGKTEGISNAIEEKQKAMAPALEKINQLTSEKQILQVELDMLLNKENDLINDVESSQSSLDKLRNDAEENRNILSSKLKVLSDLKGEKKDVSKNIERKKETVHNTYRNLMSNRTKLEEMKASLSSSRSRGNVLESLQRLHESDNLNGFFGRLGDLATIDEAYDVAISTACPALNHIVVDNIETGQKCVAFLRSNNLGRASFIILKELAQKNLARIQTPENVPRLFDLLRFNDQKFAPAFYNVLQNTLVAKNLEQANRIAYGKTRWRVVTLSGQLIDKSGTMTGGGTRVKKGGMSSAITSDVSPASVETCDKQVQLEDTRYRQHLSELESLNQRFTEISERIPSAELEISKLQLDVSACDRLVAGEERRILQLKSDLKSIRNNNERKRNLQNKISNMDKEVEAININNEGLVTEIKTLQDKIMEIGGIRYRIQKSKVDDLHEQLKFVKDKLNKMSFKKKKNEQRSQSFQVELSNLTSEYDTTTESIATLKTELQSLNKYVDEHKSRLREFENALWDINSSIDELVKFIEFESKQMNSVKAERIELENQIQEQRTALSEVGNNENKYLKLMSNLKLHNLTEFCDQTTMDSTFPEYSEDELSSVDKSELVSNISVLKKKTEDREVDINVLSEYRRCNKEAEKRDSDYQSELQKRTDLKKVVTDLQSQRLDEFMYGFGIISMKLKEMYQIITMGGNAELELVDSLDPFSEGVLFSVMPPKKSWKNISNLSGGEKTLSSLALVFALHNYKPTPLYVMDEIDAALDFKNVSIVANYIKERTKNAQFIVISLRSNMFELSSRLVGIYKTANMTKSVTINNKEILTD
T1 sequence (P41003 1-1172): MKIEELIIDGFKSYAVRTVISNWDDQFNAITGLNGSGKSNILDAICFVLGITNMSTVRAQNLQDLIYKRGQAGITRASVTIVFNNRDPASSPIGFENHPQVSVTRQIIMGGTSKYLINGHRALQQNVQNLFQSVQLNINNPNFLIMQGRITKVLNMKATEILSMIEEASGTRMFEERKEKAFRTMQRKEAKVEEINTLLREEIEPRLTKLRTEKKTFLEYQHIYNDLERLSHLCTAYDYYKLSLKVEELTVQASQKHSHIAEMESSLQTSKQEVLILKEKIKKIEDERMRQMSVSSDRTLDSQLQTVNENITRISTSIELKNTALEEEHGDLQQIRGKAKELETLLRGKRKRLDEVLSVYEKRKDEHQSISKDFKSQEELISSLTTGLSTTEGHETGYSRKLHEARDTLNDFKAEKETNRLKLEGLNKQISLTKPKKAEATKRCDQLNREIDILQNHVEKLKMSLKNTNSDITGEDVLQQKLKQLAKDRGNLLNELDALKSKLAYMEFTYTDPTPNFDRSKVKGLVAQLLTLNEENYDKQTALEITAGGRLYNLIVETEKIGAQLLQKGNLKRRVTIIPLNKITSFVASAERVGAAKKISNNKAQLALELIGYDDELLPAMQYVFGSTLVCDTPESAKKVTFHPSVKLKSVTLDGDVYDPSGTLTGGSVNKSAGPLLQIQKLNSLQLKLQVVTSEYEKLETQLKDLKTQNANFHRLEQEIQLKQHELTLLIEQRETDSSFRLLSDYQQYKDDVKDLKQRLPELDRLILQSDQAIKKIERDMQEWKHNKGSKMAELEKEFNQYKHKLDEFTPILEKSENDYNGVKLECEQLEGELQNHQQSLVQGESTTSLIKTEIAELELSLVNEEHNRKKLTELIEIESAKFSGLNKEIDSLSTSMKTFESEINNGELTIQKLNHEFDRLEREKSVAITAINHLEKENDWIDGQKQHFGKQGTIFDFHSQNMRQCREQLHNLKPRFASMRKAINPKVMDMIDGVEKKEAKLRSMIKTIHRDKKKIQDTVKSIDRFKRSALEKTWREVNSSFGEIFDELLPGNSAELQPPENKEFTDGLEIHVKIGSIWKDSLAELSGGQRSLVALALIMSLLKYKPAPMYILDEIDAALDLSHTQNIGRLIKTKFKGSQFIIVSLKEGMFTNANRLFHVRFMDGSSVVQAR

[2] = target: T1, Cut3–Cut14 (condensin SMC heterodimer; Cut3/SMC4–Cut14/SMC2); test: thiophosphorylation, PNBM alkylation, anti-thiophosphate ester western blot; format: biochemical; settings: covalent thiophosphoryl transfer to Cut3; 10 mM ATPγS

Structure (SMILES) | inhibition of γ-32P labelling, autoradiography [1] | thiophosphorylation, PNBM alkylation, anti-thiophosphate ester western blot [2]
Nc1ncnc2c1ncn2[C@@H]1O[C@H](COP(=O)(O)OP(=O)(O)NP(=O)(O)O)[C@@H](O)[C@H]1O [AMP-PNP] | Some labelling occurred in an excess of AMP-PNP | 
Nc1ncnc2c1ncn2[C@@H]1O[C@H](COP(=O)(O)OP(=O)(O)OP(O)(O)=S)[C@@H](O)[C@H]1O [ATPγS] |  | Antibody against ATPγS detected Cut3 protein in the heterodimer after incubation in the presence of ATPγS
